Where two headings read alike, the source gives them in different places.

Data set [1] relates to L 5178 Y Maus-Lyphom Zellen. Description: Nucleus size after cell lysis and propidium iodide staining (impulse cytophotometer). In kind it is cell-based. The source says: (§1) HMT wurde zu den Kulturen in verschiedenen Konzentrationen während einer Zeitspanne von 24 Std. zugegeben. Die Populationen und das Zellvolumen wurden mit einem Zytokombgerät (System Michaelis, Mainz) entsprechend dem Coulter Counter-Prinzip bestimmt. Nach der Zellolyse mit 35 mmol/l Natriumzitrat und 0,5% Triton X 100 (Herstellerin Sigma Chemie, München), RNAse Behandlung und […] mit Propidiumjodid wurde die Kerngröße mit Hilfe eines Impulszytofotometers (FACS analizer) Firma Becton and Dickinson) gemessen.
Die Zellkulturen wurden wie unter Beispiel 1 beschrieben behandelt. Bei der Bewertung der Nucleusgröße wurde als Kontrolle die Verteilung der Kerngröße bei unbehandelten Zellen zugrunde gelegt.

In data set [2] the test system is L 5178 Y Maus-Lyphom Zellen. As to the kind of experiment: Inhibition of cell growth in L 5178 Y cell culture (Coulter counter principle). In kind it is cell-based.
From the text: as §1, with “Die L 5178 Y Maus-Lyphom Zellen wurden in einem MEM-Spinner Medium mit 10 mmol/l HEPES Puffer, 10% fötalem Kalbserum und 100.000 Einheiten/l Penicillin/Steptomycin (Herstellerin Biocrom, Berlin) kultiviert. Bei Kultivierungsstart lagen 100.000 Zellen/ml Kulturmedium vor, wobei sich 60% der Zellen in der S-Phase befanden. HMT” for “HMT”

Data set [3] relates to L 5178 Y Maus-Lyphom Zellen. As to the kind of experiment: Change of cell volume in L 5178 Y cell culture (Coulter counter principle). The class given is cell-based.
From the text: as §1, with “Die L 5178 Y Maus-Lyphom Zellen wurden in einem MEM-Spinner Medium mit 10 mmol/l HEPES Puffer, 10% fötalem Kalbserum und 100.000 Einheiten/l Penicillin/Steptomycin (Herstellerin Biocrom, Berlin) kultiviert. Bei Kultivierungsstart lagen 100.000 Zellen/ml Kulturmedium vor, wobei sich 60% der Zellen in der S-Phase befanden. HMT” for “HMT”

A further data set relates to reversen Transkriptase. Description: Activity of reverse transcriptase in the cell nucleus. In kind it is cell-based. The settings on record: no method or concentration given.
The test system of a further data set is DNA-Polymerasen. Description: Activity of DNA polymerases in the cell nucleus. In kind it is cell-based. The note with it: no method or concentration given.
The conditions of data set [4]: cited from earlier work.

As to `N.N.[Cl][Pt][Cl]` [Cisplatin], the “Anzahl der Kerne mit reduzierter Nucleusgröße (%)” value in data set [1] (Cisplatin 0,5 x 10⁻⁵ g/ml Kulturvolumen) is given as 43,51±5,62%; in data set [1] (Cisplatin 0,5 x 10⁻⁶ g/ml Kulturvolumen), 6,97±2,81%; in data set [1] (Cisplatin 1,0 x 10⁻⁶ g/ml Kulturvolumen) it was 9,95±3,13%; in data set [1] (Cisplatin 1,0 x 10⁻⁷ g/ml Kulturvolumen), 4,07±2,24%; in data set [1] (Cisplatin 2,0 x 10⁻⁶ g/ml Kulturvolumen) it was 18,62±4,08%.
As to `C1N2CN3CN1CN(C2)C3` [HMT, Methenamine], the “Anzahl der Kerne mit reduzierter Nucleusgröße (%)” value is recorded as 79,9 (kernfragmente) % in data set [1] (0,1 mg HMT/ml Kulturvolumen, kernfragmente); 1,0 (Kernfragmente) % in data set [1] (0,02 mg HMT/ml Kulturvolumen, Kernfragmente); 81,3 (Kernfragmente) % in data set [1] (0,2 mg HMT/ml Kulturvolumen, Kernfragmente); 25,1 (Kernfragmente) % in data set [1] (0,05 mg HMT/ml Kulturvolumen, Kernfragmente); 6,05+2,07% in data set [1] (2 x 10⁻² mg HMT/ml Kulturvolumen); 19,62±3,89% in data set [1] (2 x 10⁻³ mg HMT/ml Kulturvolumen). Besides, the “Anzahl der Kerne mit reduzierter Nucleusgröße (%)” value is 25,77±4,29% in data set [1] (2 x 10⁻¹² mg HMT/ml Kulturvolumen); 27,17±4,13% in data set [1] (2 x 10⁻¹¹ mg HMT/ml Kulturvolumen); 13,41±3,71% in data set [1] (2 x 10⁻⁴ mg HMT/ml Kulturvolumen); 11,14±3,60% in data set [1] (2 x 10⁻⁵ mg HMT/ml Kulturvolumen); 4,50±2,92% in data set [1] (2 x 10⁻⁶ mg HMT/ml Kulturvolumen); 1,11±0,58% in data set [1] (2 x 10⁻⁷ mg HMT/ml Kulturvolumen). The “Anzahl der Kerne mit reduzierter Nucleusgröße (%)” value in data set [1] (2 x 10⁻⁸ mg HMT/ml Kulturvolumen) is 20,86±4,07%; in data set [1] (5 x 10⁻² mg HMT/ml Kulturvolumen), 4,87±91,93%. Also, the “Kerne größenreduziert im Vergleich zu den Kontrollen” value in data set [1] (range of normal cell volume, 10⁻⁴- 10⁻¹² mg HMT/ml Kulturvolumen) is listed as 25%. The activity at 100 µg/mL in data set [2] (Mus musculus, L5178Y, 24 h, 0,1 mg HMT/ml Kulturvolumen, 24 Std., Kontrolle = 100, read-out: Zellwachstum (%)) amounted to 8%. In addition, the activity at 20 µg/mL in data set [2] (Mus musculus, L5178Y, 24 h, 0,02 mg HMT/ml Kulturvolumen, 24 Std., Kontrolle = 100, read-out: Zellwachstum (%)) came out at 61%. The activity at 200 µg/mL in data set [2] (Mus musculus, L5178Y, 24 h, 0,2 mg HMT/ml Kulturvolumen, 24 Std., Kontrolle = 100, read-out: Zellwachstum (%)) was found to be 6%. In addition, the activity at 50 µg/mL in data set [2] (Mus musculus, L5178Y, 24 h, 0,05 mg HMT/ml Kulturvolumen, 24 Std., Kontrolle = 100, read-out: Zellwachstum (%)) was determined as 35%. Besides, in data set [2] (from a concentration of 1 x 10⁻³ mg/ml HMT downwards), the Zellwachstum entry is given as “nicht mehr statistisch signifikant beeinflußt”. Also, the “Zellvolumen (µm³)” value in data set [3] (0,1 mg HMT/ml Kulturvolumen, Zellfragmente, Mittelwert) is recorded as 339,06 µm³; in data set [3] (0,2 mg HMT/ml Kulturvolumen, Zellfragmente, Mittelwert), 323,75 µm³; in data set [3] (1 x 10⁻² mg HMT/ml Kulturvolumen, Kontrolle 1470,66±390,71) it was 1540,82±401,32 µm³; in data set [3] (1 x 10⁻³ mg HMT/ml Kulturvolumen, Kontrolle 1470,66±390,71), 1422,27±398,09 µm³; in data set [3] (2 x 10⁻² mg HMT/ml Kulturvolumen, Kontrolle 1470,66±390,71) it was 1718,16±487,10 µm³; in data set [3] (2 x 10⁻³ mg HMT/ml Kulturvolumen, Kontrolle 1470,66±390,71) it was 1479,35±387,79 µm³. Besides, the “Zellvolumen (µm³)” value is 1411,23±395,92 µm³ in data set [3] (2 x 10⁻¹² mg HMT/ml Kulturvolumen, Kontrolle 1470,66±390,71); 1484,77±412,43 µm³ in data set [3] (2 x 10⁻¹¹ mg HMT/ml Kulturvolumen, Kontrolle 1470,66±390,71); 1365,68±371,21 µm³ in data set [3] (2 x 10⁻⁴ mg HMT/ml Kulturvolumen, Kontrolle 1470,66±390,71); 1289,92±350,94 µm³ in data set [3] (2 x 10⁻⁵ mg HMT/ml Kulturvolumen, Kontrolle 1470,66±390,71); 1295,17±379,65 µm³ in data set [3] (2 x 10⁻⁶ mg HMT/ml Kulturvolumen, Kontrolle 1470,66±390,71); 1279,94±388,43 µm³ in data set [3] (2 x 10⁻⁷ mg HMT/ml Kulturvolumen, Kontrolle 1470,66±390,71). Further, the “Zellvolumen (µm³)” value was 1291,81±410,11 µm³ in data set [3] (2 x 10⁻⁸ mg HMT/ml Kulturvolumen, Kontrolle 1470,66±390,71); 1292,70±398,55 µm³ in data set [3] (2 x 10⁻⁹ mg HMT/ml Kulturvolumen, Kontrolle 1470,66±390,71); 1736,76±438,98 µm³ in data set [3] (5 x 10⁻² mg HMT/ml Kulturvolumen, Kontrolle 1470,66±390,71). For the same molecule, the Zellvolumen entry in data set [3] (between 10⁻⁴ - 10⁻¹² mg/ml Kulturvolumen) is recorded as “korrespondiert das Zellvolumen mit dem Zellvolumen der Kontrollen”. In addition, the “Aktivitäten der reversen Transkriptase im Zellkern” value with reversen Transkriptase is recorded as “beeinträchtigt”. Also, the “Aktivitäten der DNA-Polymerasen im Zellkern” value in the data set with DNA-Polymerasen is reported as “beeinträchtigt”. Further, the “dissoziiert in Formaldehyd und Ammoniumionen” value is 20% in data set [4] (pH 5) and 6% in data set [4] (pH 6).

Values taken from EP0425840A2, “Use of methenamine in the treatment of viral diseases and malign neoplasies” (Jaeger, Karl-Heinz, Dr. med., priority 1989, dated 1991).
